Test system: SKAMP scores in children aged 6-12 with attention deficit hyperactivity disorder (ADHD)
Experiment: Population PK/PD model of SKAMP scores (Study HLD200-107, laboratory classroom)
Assay type: in vivo, human
Settings: FIG. 37
Source text: PD data. The clinical data used in this analysis were the SKAMP scores collected in a Phase 3 (HLD200-107 study), multicenter, open-label treatment-optimized, double-blind, randomized, placebo-controlled, forced-withdrawal, parallel group study to evaluate the safety and efficacy of evening dosed HLD200, a novel delayed and extended release formulation (DELEXIS) of methylphenidate hydrochloride, in children aged 6-12 with attention deficit hyperactivity disorder (ADHD) in a laboratory classroom setting.
PK/PD model development. In this study, no MPH samples were collected. Therefore the individual exposure, used in the PK/PD analysis were estimated based on the outcomes of population PK model and on the individual demographic (weight and gender) covariate values.
The model included a parametric description of the trajectories of SKAMP scores for placebo and HLD200 treatments. […]
Examples 10 to 15 relate to PK/PD analysis results. […] In the first step, the individual MPH concentrations were derived using the population PK model previously developed jointly with the individual demographic data and the individual HLD200 dosing history, then the placebo data were modelled, and finally the SKAMP scores were analyzed by fixing the placebo and the PK exposure values previously estimated. […]

COC(=O)C(c1ccccc1)C1CCCCN1 (stereo not shown) [MPH, methylphenidate]
Drug concentration required to induce a change from placebo of ~40%: ~15 ng/mL

Reference: patent publication US20210275511A1, “METHYLPHENIDATE COMPOSITIONS FOR TREATMENT OF ATTENTION DEFICIT HYPERACTIVITY DISORDER” (Ironshore Pharmaceuticals & Development, Inc., priority 2019, published 2021)
